The source made the active and inactive calls.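 The calls were made as follows: active = half-maximal concentration for the rise in caspase light signal at or below ten times the top tested dose; inconclusive = flat fit between 30% and 70% activity, or unreliable curve fit; inactive = the rest.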
Test system: MEF A1-2A-BIM cells, caspase 3/7 luminescence, 3 h
Assay: caspase activation in A1-2A-BIM MEF cells, dose response, A1 inhibitor project, cell-based, luminescence, retest (AID 2765)

In the case of `CC(=O)c1ccc(NC(=O)CO/N=C(\C)c2cccs2)cc1`, the EC50 is reported as > 35 µM (inactive).
For `CCOc1ccccc1C(=O)N[C@H](C(=O)OCc1cc([N+](=O)[O-])cc2c1OCOC2)C(C)C`, the EC50 was > 35 µM (inactive).
In the case of `Cn1c2ccccc2c2cnn(CC(=O)NCCCN3CCN(c4ccccc4F)CC3)c(=O)c21`, the EC50 is reported as > 35 µM (inactive).
In the case of `CCc1cccc(N(CC(=O)NCc2ccc(F)cc2)C(=O)c2csnn2)c1`, the EC50 is reported as > 35 µM (inactive).
With `CS(=O)(=O)c1sc(C#N)c2c1C(=O)CC(c1ccccc1)C2` (centres undefined) the EC50 was > 35 µM (inactive).
`COc1ccc(NC(=O)CSc2nc3ccc(Nc4nc(N5CCOCC5)nc(N5CCOCC5)n4)cc3s2)cc1` was tested, and the EC50 was > 35 µM (inactive).
`COCc1cccc(NC(=O)CCc2ccccc2)c1` was tested, and the EC50 was > 35 µM (inactive).
`CS(=O)(=O)Nc1ccc(C2=NN(C(=O)c3cccc(F)c3)C(c3cccs3)C2)cc1` (centres undefined) was tested, and the EC50 was > 35 µM (inactive).
For `CCCCCCCCC(=O)NNC(=O)c1c(O)c2ccccc2n(CCC)c1=O`, the EC50 was > 35 µM (inactive).
Molecule `COc1cc(/C=C(/C#N)c2nc3ccccc3[nH]2)ccc1OCC(=O)Nc1ccccc1C` has an EC50 of 4.3 µM.
With `COC(=O)CN(c1ccc(OC)c(OC)c1)S(C)(=O)=O` the EC50 was > 35 µM (inactive).
`COc1ccc(NC(=O)c2cccc3c2C(=O)c2ccc(-c4ccc(F)cc4OCc4ccccc4)cc2S3(=O)=O)cc1` was tested, and the EC50 was > 35 µM (inactive).
`O=C(CC1CC2CCC1C2)N1CCN(S(=O)(=O)c2ccccc2C(F)(F)F)CC1` (centres undefined) was tested, and the EC50 was > 35 µM (inactive).
For `COc1ccc(S(=O)(=O)Nc2ccc(NC(C)=O)cc2)cc1`, the EC50 was > 35 µM (inactive).
In the case of `CN(C)C=NC(=O)c1cc(C(=O)c2ccc(Cl)cc2Cl)c[nH]1`, the EC50 is reported as > 35 µM (inactive).
In the case of `COc1ccc(/C=C2\SC(=O)N(CCC(=O)N(C)C3CCS(=O)(=O)C3)C2=O)cc1` (centres undefined), the EC50 is reported as > 35 µM (inactive).
Work on `NS(=O)(=O)c1ccc(N/N=C/c2cn(-c3ccccc3)nc2-c2ccccc2)c([N+](=O)[O-])c1` yielded an EC50 of 27.1 µM.
In the case of `O=C(CCl)N=c1sccn1Cc1ccccc1Cl`, the EC50 is reported as > 35 µM (inactive).
`Cc1c(C(c2ccccc2O)c2c(C)n(C)n(-c3ccccc3)c2=O)c(=O)n(-c2ccccc2)n1C` was tested, and the EC50 was > 35 µM (inactive).
For `C[C@]12CC[C@H](O)C[C@H]1CC[C@@H]1[C@@H]2CC[C@]2(C)[C@@H](C3=CC(=O)OC3)CC[C@]12O`, the EC50 was > 35 µM (inactive).
In the case of `C#CCn1ccc(O)c(Cc2ccccc2)c1=O`, the EC50 is reported as > 35 µM (inactive).
For `Cc1ccc(C(C[N+](=O)[O-])c2c(C)[nH]n(-c3ccccc3)c2=O)cc1` (centres undefined), the EC50 was > 35 µM (inactive).
In the case of `COc1ccc(CC(=O)NCCN2CCOCC2)cc1`, the EC50 is reported as > 35 µM (inactive).
For `Cc1c(CCCC(=O)O)sc(N)c1C(=O)c1cccc(C(F)(F)F)c1`, the EC50 was > 35 µM (inactive).
In the case of `COc1ccc(CN2CCN(Cc3cc4ccccc4o3)CC2CCO)c(F)c1` (centres undefined), the EC50 is reported as > 35 µM (inactive).
`COc1ccc(CCNC(=O)COC(=O)c2cnc(Cl)c(Cl)c2)cc1` was tested, and the EC50 was > 35 µM (inactive).
With `CCS(=O)(=O)c1ncc(Cl)c(C(=O)Nc2ccc(C)cc2)n1` the EC50 was > 35 µM (inactive).
With `CN(c1ccc(OCC(=O)NC2CCC(O)CC2)cc1)S(=O)(=O)c1ccc(Cl)cc1` (centres undefined) the EC50 was > 35 µM (inactive).
In the case of `COC(=O)C[C@H]1c2ccccc2S(=O)(=O)N1c1cccc(OC)c1`, the EC50 is reported as > 35 µM (inactive).
For `Cc1cc(C)c(S(=O)(=O)N2CCCCCC2)cc1Br`, the EC50 was > 35 µM (inactive).
In the case of `C#CCOCCOCCOCCNc1nc(N2CCN(C(=O)[C@H](CCCCN)n3cc(CCCC)nn3)CC2)nc(N2CCN(C(=O)[C@H](CCCCN)n3cc(CCC(=O)O)nn3)CC2)n1`, the EC50 is reported as > 35 µM (inactive).
For `NC(N)=N/N=C/c1cccc([N+](=O)[O-])c1O`, the EC50 was > 35 µM (inactive).
With `Cc1ccc(C(=O)Nc2ccc(N3CCOCC3)nc2N2CCOCC2)cc1` the EC50 was > 35 µM (inactive).
For `O=C1NC(=O)c2cc(NC(=O)C3CCCO3)ccc21` (centres undefined), the EC50 was > 35 µM (inactive).
`FC(F)(F)c1ccc(Sc2n[nH]c(C(F)(F)F)n2)nc1` was tested, and the EC50 was > 35 µM (inactive).
For `CSc1ccc(CCNC(=O)CCc2nnc3ccc(NCCCN4CCCC4=O)nn23)cc1`, the EC50 was > 35 µM (inactive).
In the case of `O=C(/C=C/c1ccccc1)Nc1cccnc1`, the EC50 is reported as > 35 µM (inactive).
With `COCc1cc(C)nc(SCC(=O)Nc2nc(C)cs2)c1C#N` the EC50 was > 35 µM (inactive).
For `CC(C)(C)OC(=O)NCCc1nnc(S(=O)(=O)Cc2ccc(Cl)cc2Cl)o1`, the EC50 was > 35 µM (inactive).
In the case of `COc1ccc(-c2ccc(NS(=O)(=O)c3cc([N+](=O)[O-])c(C)c([N+](=O)[O-])c3)cc2)nn1`, the EC50 is reported as > 35 µM (inactive).
For `COc1ccccc1CCCNC(=O)C1CCC(=O)N(Cc2ccccc2F)C1` (centres undefined), the EC50 was > 35 µM (inactive).
In the case of `COc1ccc(NC(=O)CN2CCN(CC(=O)Nc3ccccc3Cl)CC2)cc1Cl`, the EC50 is reported as > 35 µM (inactive).
`Cc1cc(NC(=O)c2ccc3c(c2)C(=O)N(Cc2ccccc2)C3=O)no1` was tested, and the EC50 was > 35 µM (inactive).
`CC(=O)Nc1ccc([N+](=O)[O-])c(CS(=O)(=O)c2ccc(C)cc2)c1[N+](=O)[O-]` was tested, and the EC50 was > 35 µM (inactive).
`O=C1C(=O)N(C/C=C/c2ccccc2)c2ccccc21` was tested, and the EC50 was > 35 µM (inactive).
With `C=CCOc1c(Br)cc(CNc2ccc3[nH]c(=O)[nH]c3c2)cc1OCC` the EC50 was > 35 µM (inactive).
For `COc1ccc(OC)c(/C=C/C(=O)N(C)CC(=O)Nc2cc(C)ccc2C)c1`, the EC50 was > 35 µM (inactive).
In the case of `COc1ccc(CCNCC(C)c2ccccc2)cc1` (centres undefined), the EC50 is reported as > 35 µM (inactive).
In the case of `O=C(/C=C/c1ccc(F)cc1)NC(=S)Nc1ccccc1C(=O)NC1CCCCC1`, the EC50 is reported as > 35 µM (inactive).
With `CN(C(=O)CSc1ccncc1)C1CCCN(Cc2ccccc2F)C1` (centres undefined) the EC50 was > 35 µM (inactive).
With `N[C@@]1(C(=O)O)CC[C@@H](C(=O)O)C1` the EC50 was > 35 µM (inactive).
For `CC(C(=O)N(C)c1ccccc1)N1CCN(C(=O)c2ccccc2)CC1` (centres undefined), the EC50 was > 35 µM (inactive).
With `CC(=O)Oc1ccccc1C(=O)Oc1ccccc1C(=O)O` the EC50 was > 35 µM (inactive).
In the case of `CCc1nn(-c2cc(Oc3cccc4ccccc34)nc(-c3ccccc3)n2)c(N)c1C#N`, the EC50 is reported as > 35 µM (inactive).
With `CC(NC(=O)c1cccc(OC2CCN(C3CCN(C)CC3)CC2)c1)c1ccccc1` (centres undefined) the EC50 was > 35 µM (inactive).
`Cc1ccc(-c2noc(CSc3nnc(CCc4ccccc4)n3-c3ccccc3)n2)cc1` was tested, and the EC50 was > 35 µM (inactive).
For `CCCN1CCN(CCCNC(=O)CCCn2nc(C)c3sc4ccccc4c3c2=O)CC1`, the EC50 was > 35 µM (inactive).
With `O=C(CSc1ncccc1C(=O)O)NC1CCCCC1` the EC50 was > 35 µM (inactive).
With `CCCCn1c(=O)[nH]c(=O)c2c1nc(Cn1ncc(Cl)c(Cl)c1=O)n2CCC` the EC50 was > 35 µM (inactive).
With `O=c1c(O[C@@H]2O[C@H](CO)[C@@H](O)[C@H](O)[C@H]2O)c(-c2ccc(O)cc2)oc2cc(O)cc(O)c12` the EC50 was > 35 µM (inactive).
In the case of `COc1ccc(CNC(=O)Cc2cccs2)cc1OC`, the EC50 is reported as > 35 µM (inactive).
For `Cc1cccc(Nc2nc(N)c([N+](=O)[O-])c(N3CCCC(C)C3)n2)c1` (centres undefined), the EC50 was > 35 µM (inactive).
`Cc1cc(=O)oc2c3c(cc(OCC(=O)N[C@@H](CC(C)C)C(=O)O)c12)OC(C)(C)CC3` was tested, and the EC50 was > 35 µM (inactive).
In the case of `Cc1nnc(SCC(=O)NN2C(=O)NC3(CCCCC3)C2=O)s1`, the EC50 is reported as > 35 µM (inactive).
With `CC(C)(C)C1=CC=C(C(C)(C)C)C(=O)C1=O` the EC50 was > 35 µM (inactive).
For `CCc1cccc(CC)c1NC(=O)C1CSC2(C)CCC(=O)N12` (centres undefined), the EC50 was > 35 µM (inactive).
In the case of `Cc1cc(C(=O)N2CCN(c3ccc(F)cc3)CC2)on1`, the EC50 is reported as > 35 µM (inactive).
With `COC(=O)C1SCC2C(=O)N(Cc3ccc(Cl)cc3)CC(=O)N21` (centres undefined) the EC50 was > 35 µM (inactive).
In the case of `COCc1cc(C)nc(SCC(=O)Nc2ccc3c(c2)OCO3)c1C#N`, the EC50 is reported as > 35 µM (inactive).
For `CC1(C(=O)NCC2CC2)C=CC2(CCCCC2)N1C(=O)c1ccccc1` (centres undefined), the EC50 was > 35 µM (inactive).
For `Cc1ccc(CCNC(=O)c2cc(-c3ccncc3)nc3ccc(S(=O)(=O)N4CCOCC4)cc23)cc1`, the EC50 was > 35 µM (inactive).
For `COc1ccccc1-c1cn[nH]c1-c1ccc(OCc2ccccc2)cc1O`, the EC50 was > 35 µM (inactive).
With `O=C(Nc1nnc(C2CCCCC2)s1)C1CC(=O)N(c2ccc(F)cc2)C1` (centres undefined) the EC50 was > 35 µM (inactive).
`COc1ccccc1CCNC(C)CCc1ccc(O)cc1` (centres undefined) was tested, and the EC50 was > 35 µM (inactive).
`c1ccc(-c2sc3ccccc3c2-c2ccc(OCCN3CCOCC3)cc2)cc1` was tested, and the EC50 was > 35 µM (inactive).
With `CNC(=S)NC1(C)CCS(=O)(=O)C1` (centres undefined) the EC50 was > 35 µM (inactive).
With `CCOC(=O)c1sc(NC(=O)CSc2nc(C)cc(C)c2C#N)c(C#N)c1C` the EC50 was > 35 µM (inactive).
For `Cc1cc(C)n2nc(SCC(=O)NC(=O)c3ccccc3)nc2n1`, the EC50 was > 35 µM (inactive).
`CCCCNC(=O)c1ccc(Cn2c(=S)[nH]c3c([nH]c4ccc(OC)cc43)c2=O)cc1` gave an EC50 of 5.24 µM.
With `Cc1cc(C(=O)CCl)c(C)n1CCc1ccc(Cl)cc1` the EC50 was > 35 µM (inactive).
For `CC1CC(C)CN(C(=O)CCCn2c(=S)[nH]c3ccccc3c2=O)C1` (centres undefined), the EC50 was > 35 µM (inactive).
`COC(=O)C1CSC(c2ccc(Cl)cc2)N1C(=O)c1ccccc1` (centres undefined) was tested, and the EC50 was > 35 µM (inactive).
For `CN(Cc1ccc(F)cc1)C(=O)CNC(=O)C1CCCCC1`, the EC50 was > 35 µM (inactive).
In the case of `COc1cc(OC)cc(C(=O)N[C@H](C(=O)OCC(=O)Nc2ccc(C)cc2C)C(C)C)c1`, the EC50 is reported as > 35 µM (inactive).
`O=C(CS(=O)(=O)c1ccccc1)N(CCCN1CCOCC1)c1nc2c(F)cccc2s1` was tested, and the EC50 was > 35 µM (inactive).
For `CCc1nnc(NC(=O)c2ccc(NC(=O)C(C)C)cc2)s1`, the EC50 was > 35 µM (inactive).
`Cc1ccc(NC(=O)CSc2nc3nc(C)c(Br)cc3[nH]2)cc1F` was tested, and the EC50 was > 35 µM (inactive).
With `COc1ccc(CCNC(=O)C2CCCN2C(=O)Nc2ccc(Cl)cc2)cc1OC` (centres undefined) the EC50 was > 35 µM (inactive).
`COc1cc2c(cc1OC)C(c1ccccc1Br)NC(=O)C2` (centres undefined) was tested, and the EC50 was > 35 µM (inactive).
For `Cc1ccc(S(=O)(=O)N(C)Cc2ccc(C(=O)N/N=C/c3ccc(OC(F)F)cc3)cc2)cc1`, the EC50 was > 35 µM (inactive).
In the case of `COc1ccc(CCNC(=O)CCOc2ccc(C)cc2)cc1OC`, the EC50 is reported as > 35 µM (inactive).
For `CC(C)CCN(C(=O)Cc1ccc(Cl)c(Cl)c1)c1c(N)n(Cc2ccccc2)c(=O)[nH]c1=O`, the EC50 was 12 µM.
With `COC(=O)C1=C(C(=O)OC)[C@@H]2N(C)c3ccc(OC)cc3[C@@]23C[C@@H](C(=O)OC)N(C(=O)c2ccco2)C3=N1` the EC50 was > 35 µM (inactive).
With `Nc1nc(F)nc2c1ncn2[C@@H]1O[C@H](CO)[C@@H](O)[C@H]1O` the EC50 was > 35 µM (inactive).

— PubChem BioAssay AID2765 (Broad Institute, 2010)
